Data as given in the kinase profiling compilation of Christmann-Franck et al. (2016).

Columns and labels:
Experiment in all cases: KINOMEscan competition binding
Conditions in all cases: compound 1.0 µM
PIK3C2G (human) = PIK3C2G (human) (UniProt O75747)
[1] = tested on: RET (human), P07949 [M918T]
[2] = tested on: EGFR (human), P00533 [A750P; 747-749 del]
DYRK1B (human) = DYRK1B (human) (UniProt Q9Y463)
LTK (human) = LTK (human) (UniProt P29376)
MAP2K1 (human) = MAP2K1 (human) (UniProt Q02750)
ACVRL1 (human) = ACVRL1 (human) (UniProt P37023)
ROCK2 (human) = ROCK2 (human) (UniProt O75116)
CDK17 (human) = CDK17 (human) (UniProt Q00537)
PRKD1 (human) = PRKD1 (human) (UniProt Q15139)
STK38 (human) = STK38 (human) (UniProt Q15208)
TTK (human) = TTK (human) (UniProt P33981)
PRKCH (human) = PRKCH (human) (UniProt P24723)
PKN2 (human) = PKN2 (human) (UniProt Q16513)
SYK (human) = SYK (human) (UniProt P43405)
BMPR1A (human) = BMPR1A (human) (UniProt P36894)
MAPK3 (human) = MAPK3 (human) (UniProt P27361)
PAK1 (human) = PAK1 (human) (UniProt Q13153)
CDK19 (human) = CDK19 (human) (UniProt Q9BWU1)
ACVR1 (human) = ACVR1 (human) (UniProt Q04771)
CSNK1A1 (human) = CSNK1A1 (human) (UniProt P48729)
PKN1 (human) = PKN1 (human) (UniProt Q16512)
DCLK2 (human) = DCLK2 (human) (UniProt Q8N568)
KDR (human) = KDR (human) (UniProt P35968)
PDGFRA (human) = PDGFRA (human) (UniProt P16234)
CDK2 (human) = CDK2 (human) (UniProt P24941)
RIOK1 (human) = RIOK1 (human) (UniProt Q9BRS2)
NEK7 (human) = NEK7 (human) (UniProt Q8TDX7)
[3] = tested on: RET (human), P07949 [V804M]
MATK (human) = MATK (human) (UniProt P42679)
[4] = tested on: KIT (human), P10721 [V559D/V654A]
[5] = tested on: FLT3 (human), P36888 [ITD]
EGFR (human) = EGFR (human) (UniProt P00533)
SLK (human) = SLK (human) (UniProt Q9H2G2)
IKBKB (human) = IKBKB (human) (UniProt O14920)
PTK2B (human) = PTK2B (human) (UniProt Q14289)
MAP3K12 (human) = MAP3K12 (human) (UniProt Q12852)
SRC (human) = SRC (human) (UniProt P12931)
MYLK2 (human) = MYLK2 (human) (UniProt Q9H1R3)
PLK4 (human) = PLK4 (human) (UniProt O00444)
HIPK3 (human) = HIPK3 (human) (UniProt Q9H422)
MAP3K4 (human) = MAP3K4 (human) (UniProt Q9Y6R4)
RPS6KA1 KD2 (human) = RPS6KA1 KD2 (human) (UniProt Q15418)

Chain of PTK2B (human) (Q14289 whole entry, looked up): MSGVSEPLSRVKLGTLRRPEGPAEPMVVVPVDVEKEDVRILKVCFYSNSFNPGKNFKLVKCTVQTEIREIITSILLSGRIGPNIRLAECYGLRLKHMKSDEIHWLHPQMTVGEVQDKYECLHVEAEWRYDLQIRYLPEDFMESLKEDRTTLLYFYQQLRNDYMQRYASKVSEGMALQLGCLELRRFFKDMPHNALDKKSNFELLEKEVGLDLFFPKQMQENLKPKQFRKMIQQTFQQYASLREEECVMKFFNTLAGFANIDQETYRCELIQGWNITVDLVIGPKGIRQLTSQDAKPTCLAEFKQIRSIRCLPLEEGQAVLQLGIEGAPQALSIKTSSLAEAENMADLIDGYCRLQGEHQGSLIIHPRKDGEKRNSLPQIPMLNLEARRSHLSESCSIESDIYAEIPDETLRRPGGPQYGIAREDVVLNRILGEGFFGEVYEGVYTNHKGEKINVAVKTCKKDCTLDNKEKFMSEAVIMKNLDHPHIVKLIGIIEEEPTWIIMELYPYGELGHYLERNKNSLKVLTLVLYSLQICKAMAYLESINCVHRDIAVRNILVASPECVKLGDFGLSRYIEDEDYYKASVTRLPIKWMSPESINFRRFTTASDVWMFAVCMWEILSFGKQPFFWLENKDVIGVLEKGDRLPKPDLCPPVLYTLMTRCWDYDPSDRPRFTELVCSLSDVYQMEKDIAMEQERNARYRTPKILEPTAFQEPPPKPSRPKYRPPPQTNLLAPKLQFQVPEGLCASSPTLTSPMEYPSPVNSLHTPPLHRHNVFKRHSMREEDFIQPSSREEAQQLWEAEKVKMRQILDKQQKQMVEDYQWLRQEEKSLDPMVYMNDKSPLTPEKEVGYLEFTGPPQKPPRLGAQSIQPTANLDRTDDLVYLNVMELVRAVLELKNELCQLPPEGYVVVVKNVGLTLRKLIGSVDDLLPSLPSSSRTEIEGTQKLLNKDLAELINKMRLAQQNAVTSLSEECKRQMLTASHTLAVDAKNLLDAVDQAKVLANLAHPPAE
Chain of IKBKB (human) (O14920 whole entry, looked up): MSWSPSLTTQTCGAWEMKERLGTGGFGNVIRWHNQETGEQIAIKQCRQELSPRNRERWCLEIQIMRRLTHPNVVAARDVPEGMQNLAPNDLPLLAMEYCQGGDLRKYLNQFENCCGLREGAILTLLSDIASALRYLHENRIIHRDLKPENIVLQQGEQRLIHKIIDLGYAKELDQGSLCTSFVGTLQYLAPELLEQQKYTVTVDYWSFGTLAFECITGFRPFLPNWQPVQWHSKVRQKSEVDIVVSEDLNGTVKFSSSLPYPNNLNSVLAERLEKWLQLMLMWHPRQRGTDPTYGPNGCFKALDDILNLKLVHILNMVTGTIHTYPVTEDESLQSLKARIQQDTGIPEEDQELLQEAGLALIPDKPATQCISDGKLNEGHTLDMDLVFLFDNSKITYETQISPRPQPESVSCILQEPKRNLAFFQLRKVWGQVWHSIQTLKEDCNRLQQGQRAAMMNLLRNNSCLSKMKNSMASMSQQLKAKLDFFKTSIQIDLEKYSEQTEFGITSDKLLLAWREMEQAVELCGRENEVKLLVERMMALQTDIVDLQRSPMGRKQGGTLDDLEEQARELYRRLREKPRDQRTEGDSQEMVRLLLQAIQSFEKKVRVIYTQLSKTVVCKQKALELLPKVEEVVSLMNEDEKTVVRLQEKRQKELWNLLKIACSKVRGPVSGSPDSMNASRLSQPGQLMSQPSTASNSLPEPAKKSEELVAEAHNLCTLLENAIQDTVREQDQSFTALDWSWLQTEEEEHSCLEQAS
Chain of SRC (human) (P12931 whole entry, looked up): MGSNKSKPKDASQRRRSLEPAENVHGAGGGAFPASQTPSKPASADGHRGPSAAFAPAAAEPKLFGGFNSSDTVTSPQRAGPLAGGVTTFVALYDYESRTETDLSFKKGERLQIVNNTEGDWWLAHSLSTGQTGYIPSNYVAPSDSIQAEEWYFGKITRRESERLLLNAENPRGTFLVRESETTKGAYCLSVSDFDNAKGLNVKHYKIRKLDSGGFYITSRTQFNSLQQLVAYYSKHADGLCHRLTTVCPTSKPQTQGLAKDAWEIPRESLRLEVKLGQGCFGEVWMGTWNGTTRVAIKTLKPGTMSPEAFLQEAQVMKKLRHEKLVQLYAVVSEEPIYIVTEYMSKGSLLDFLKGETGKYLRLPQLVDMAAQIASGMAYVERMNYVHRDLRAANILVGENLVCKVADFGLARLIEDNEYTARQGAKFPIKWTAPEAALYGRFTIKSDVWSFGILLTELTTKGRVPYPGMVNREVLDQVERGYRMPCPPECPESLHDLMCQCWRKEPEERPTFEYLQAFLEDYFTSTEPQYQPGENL
Chain of PRKCH (human) (P24723 whole entry, looked up): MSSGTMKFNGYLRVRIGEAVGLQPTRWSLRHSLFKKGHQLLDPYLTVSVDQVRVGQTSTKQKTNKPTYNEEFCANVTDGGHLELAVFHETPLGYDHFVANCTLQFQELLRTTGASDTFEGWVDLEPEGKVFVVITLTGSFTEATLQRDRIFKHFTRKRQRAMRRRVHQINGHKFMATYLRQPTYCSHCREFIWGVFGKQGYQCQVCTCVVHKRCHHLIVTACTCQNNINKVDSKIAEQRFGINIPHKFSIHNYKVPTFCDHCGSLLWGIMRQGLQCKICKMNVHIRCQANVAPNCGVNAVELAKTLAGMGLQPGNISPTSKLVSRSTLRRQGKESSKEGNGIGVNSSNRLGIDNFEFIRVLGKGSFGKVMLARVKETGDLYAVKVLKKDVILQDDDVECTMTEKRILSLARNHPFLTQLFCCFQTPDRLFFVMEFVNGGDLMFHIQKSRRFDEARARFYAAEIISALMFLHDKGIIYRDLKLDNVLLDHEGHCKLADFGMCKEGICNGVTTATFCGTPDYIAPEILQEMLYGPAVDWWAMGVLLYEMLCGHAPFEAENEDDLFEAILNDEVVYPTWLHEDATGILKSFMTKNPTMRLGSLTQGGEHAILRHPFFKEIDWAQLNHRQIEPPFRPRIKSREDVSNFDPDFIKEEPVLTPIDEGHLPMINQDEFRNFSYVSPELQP
Chain of MATK (human) (P42679 whole entry, looked up): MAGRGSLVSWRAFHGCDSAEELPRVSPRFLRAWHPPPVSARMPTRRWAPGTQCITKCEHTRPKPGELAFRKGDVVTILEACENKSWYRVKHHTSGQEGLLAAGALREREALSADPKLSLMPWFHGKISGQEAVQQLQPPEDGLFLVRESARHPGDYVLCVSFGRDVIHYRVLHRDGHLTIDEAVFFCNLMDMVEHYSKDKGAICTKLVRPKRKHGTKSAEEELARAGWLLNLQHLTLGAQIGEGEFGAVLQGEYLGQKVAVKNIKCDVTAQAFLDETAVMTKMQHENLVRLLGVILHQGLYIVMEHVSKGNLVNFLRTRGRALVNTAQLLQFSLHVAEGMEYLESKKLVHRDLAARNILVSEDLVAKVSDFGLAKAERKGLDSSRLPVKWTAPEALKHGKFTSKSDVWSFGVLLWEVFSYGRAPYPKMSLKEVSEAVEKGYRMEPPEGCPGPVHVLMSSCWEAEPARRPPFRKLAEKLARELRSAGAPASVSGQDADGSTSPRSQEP
Chain of DCLK2 (human) (Q8N568 whole entry, looked up): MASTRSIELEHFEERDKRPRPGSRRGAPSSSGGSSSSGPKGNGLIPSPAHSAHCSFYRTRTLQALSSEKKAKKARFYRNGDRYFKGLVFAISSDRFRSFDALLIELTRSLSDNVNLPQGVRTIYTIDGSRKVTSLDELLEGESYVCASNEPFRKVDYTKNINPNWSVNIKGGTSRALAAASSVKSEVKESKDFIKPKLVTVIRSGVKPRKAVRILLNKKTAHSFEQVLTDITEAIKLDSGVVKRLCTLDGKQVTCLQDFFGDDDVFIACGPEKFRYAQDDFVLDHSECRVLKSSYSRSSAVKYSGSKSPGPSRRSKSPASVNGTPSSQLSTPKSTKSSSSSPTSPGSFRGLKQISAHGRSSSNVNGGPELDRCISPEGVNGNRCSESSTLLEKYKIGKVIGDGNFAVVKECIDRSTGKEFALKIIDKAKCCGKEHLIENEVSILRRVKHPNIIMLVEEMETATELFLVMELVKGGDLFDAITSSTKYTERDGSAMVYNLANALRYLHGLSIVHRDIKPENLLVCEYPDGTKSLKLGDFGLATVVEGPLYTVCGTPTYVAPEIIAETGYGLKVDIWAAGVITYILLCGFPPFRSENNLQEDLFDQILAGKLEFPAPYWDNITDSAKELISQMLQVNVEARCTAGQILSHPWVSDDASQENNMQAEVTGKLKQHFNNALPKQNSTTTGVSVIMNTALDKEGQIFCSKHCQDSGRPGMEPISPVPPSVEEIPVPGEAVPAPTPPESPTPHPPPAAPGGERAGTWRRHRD
Chain of ACVRL1 (human) (P37023 whole entry, looked up): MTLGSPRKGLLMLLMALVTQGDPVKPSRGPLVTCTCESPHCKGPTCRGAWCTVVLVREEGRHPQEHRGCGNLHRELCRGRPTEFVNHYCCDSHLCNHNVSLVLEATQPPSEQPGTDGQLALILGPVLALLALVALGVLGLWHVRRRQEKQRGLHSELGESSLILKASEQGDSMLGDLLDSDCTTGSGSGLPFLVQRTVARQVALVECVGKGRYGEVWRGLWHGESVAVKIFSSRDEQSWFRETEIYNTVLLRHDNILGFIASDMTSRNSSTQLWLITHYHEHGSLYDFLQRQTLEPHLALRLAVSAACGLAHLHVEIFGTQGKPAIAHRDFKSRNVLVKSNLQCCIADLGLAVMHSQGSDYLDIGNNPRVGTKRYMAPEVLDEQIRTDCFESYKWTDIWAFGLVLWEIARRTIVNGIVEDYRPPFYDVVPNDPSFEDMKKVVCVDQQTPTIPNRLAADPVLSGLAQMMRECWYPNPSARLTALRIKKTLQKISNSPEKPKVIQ

`CN(C)C/C=C/C(=O)Nc1cccc(C(=O)Nc2ccc(Nc3nccc(/C(C#N)=C4\Nc5ccccc5S4)n3)cc2)c1` showed a kinase still bound, per cent of control (PIK3C2G (human)) of 100%, a kinase still bound, per cent of control [1] of 17% and a kinase still bound, per cent of control [2] of 94%. The kinase still bound, per cent of control (DYRK1B (human)) was 66%, the kinase still bound, per cent of control (LTK (human)) was 100% and the kinase still bound, per cent of control (MAP2K1 (human)) was 100%. It also gave a kinase still bound, per cent of control (ACVRL1 (human)) of 100%, a kinase still bound, per cent of control (ROCK2 (human)) of 100% and a kinase still bound, per cent of control (CDK17 (human)) of 100%. The kinase still bound, per cent of control (PRKD1 (human)) was 100%, the kinase still bound, per cent of control (STK38 (human)) was 100% and the kinase still bound, per cent of control (TTK (human)) was 100%. It also gave a kinase still bound, per cent of control (PRKCH (human)) of 100%, a kinase still bound, per cent of control (PKN2 (human)) of 87% and a kinase still bound, per cent of control (SYK (human)) of 85%. The kinase still bound, per cent of control (BMPR1A (human)) was 100%, the kinase still bound, per cent of control (MAPK3 (human)) was 100% and the kinase still bound, per cent of control (PAK1 (human)) was 100%. It also gave a kinase still bound, per cent of control (CDK19 (human)) of 93%, a kinase still bound, per cent of control (ACVR1 (human)) of 100% and a kinase still bound, per cent of control (CSNK1A1 (human)) of 75%. For the same compound, the kinase still bound, per cent of control (PKN1 (human)) was 92%, the kinase still bound, per cent of control (DCLK2 (human)) was 100% and the kinase still bound, per cent of control (KDR (human)) was 55%. For the same compound, the kinase still bound, per cent of control (PDGFRA (human)) was 100%, the kinase still bound, per cent of control (CDK2 (human)) was 100% and the kinase still bound, per cent of control (RIOK1 (human)) was 14%. For the same compound, the kinase still bound, per cent of control (NEK7 (human)) was 100%, the kinase still bound, per cent of control [3] was 100% and the kinase still bound, per cent of control (MATK (human)) was 100%. For the same compound, the kinase still bound, per cent of control [4] was 100%, the kinase still bound, per cent of control [5] was 57% and the kinase still bound, per cent of control (EGFR (human)) was 81%. It also gave a kinase still bound, per cent of control (SLK (human)) of 8.6%, a kinase still bound, per cent of control (IKBKB (human)) of 87% and a kinase still bound, per cent of control (PTK2B (human)) of 100%. It also gave a kinase still bound, per cent of control (MAP3K12 (human)) of 100%, a kinase still bound, per cent of control (SRC (human)) of 100% and a kinase still bound, per cent of control (MYLK2 (human)) of 100%. For the same compound, the kinase still bound, per cent of control (PLK4 (human)) was 97%, the kinase still bound, per cent of control (HIPK3 (human)) was 85% and the kinase still bound, per cent of control (MAP3K4 (human)) was 100%. For the same compound, the kinase still bound, per cent of control (RPS6KA1 KD2 (human)) was 100%.

In the case of `CN(C)C/C=C/C(=O)Nc1cccc(C(=O)Nc2ccc(Nc3nccc(-c4cccnc4)n3)cc2)c1`, the kinase still bound, per cent of control (PIK3C2G (human)) is reported as 100%, the kinase still bound, per cent of control [1] is reported as 100% and the kinase still bound, per cent of control [2] is reported as 87%. The kinase still bound, per cent of control (DYRK1B (human)) was 52%, the kinase still bound, per cent of control (LTK (human)) was 100% and the kinase still bound, per cent of control (MAP2K1 (human)) was 46%. It also gave a kinase still bound, per cent of control (ACVRL1 (human)) of 100%, a kinase still bound, per cent of control (ROCK2 (human)) of 16% and a kinase still bound, per cent of control (CDK17 (human)) of 84%. The kinase still bound, per cent of control (PRKD1 (human)) was 100%, the kinase still bound, per cent of control (STK38 (human)) was 100% and the kinase still bound, per cent of control (TTK (human)) was 97%. It also gave a kinase still bound, per cent of control (PRKCH (human)) of 84%, a kinase still bound, per cent of control (PKN2 (human)) of 33% and a kinase still bound, per cent of control (SYK (human)) of 66%. It also gave a kinase still bound, per cent of control (BMPR1A (human)) of 46%, a kinase still bound, per cent of control (MAPK3 (human)) of 100% and a kinase still bound, per cent of control (PAK1 (human)) of 69%. The kinase still bound, per cent of control (CDK19 (human)) was 58%, the kinase still bound, per cent of control (ACVR1 (human)) was 70% and the kinase still bound, per cent of control (CSNK1A1 (human)) was 19%. It also gave a kinase still bound, per cent of control (PKN1 (human)) of 100%, a kinase still bound, per cent of control (DCLK2 (human)) of 100% and a kinase still bound, per cent of control (KDR (human)) of 100%. For the same compound, the kinase still bound, per cent of control (PDGFRA (human)) was 67%, the kinase still bound, per cent of control (CDK2 (human)) was 100% and the kinase still bound, per cent of control (RIOK1 (human)) was 15%. The kinase still bound, per cent of control (NEK7 (human)) was 7%, the kinase still bound, per cent of control [3] was 100% and the kinase still bound, per cent of control (MATK (human)) was 99%. For the same compound, the kinase still bound, per cent of control [4] was 67%, the kinase still bound, per cent of control [5] was 16% and the kinase still bound, per cent of control (EGFR (human)) was 95%. It also gave a kinase still bound, per cent of control (SLK (human)) of 100%, a kinase still bound, per cent of control (IKBKB (human)) of 48% and a kinase still bound, per cent of control (PTK2B (human)) of 100%. For the same compound, the kinase still bound, per cent of control (MAP3K12 (human)) was 72%, the kinase still bound, per cent of control (SRC (human)) was 88% and the kinase still bound, per cent of control (MYLK2 (human)) was 35%. It also gave a kinase still bound, per cent of control (PLK4 (human)) of 52%, a kinase still bound, per cent of control (HIPK3 (human)) of 5.7% and a kinase still bound, per cent of control (MAP3K4 (human)) of 88%. For the same compound, the kinase still bound, per cent of control (RPS6KA1 KD2 (human)) was 82%.
